ChEMBL document CHEMBL1201862, “PubChem BioAssay data set” (2004)
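Values below derive from 48-hour exposures of cells grown in 96-well plates, with endpoints linearly interpolated between the two concentrations bracketing the appropriate inhibition level. Abbreviation: GI50, concentration required for 50% inhibition of growth.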 The source made the active and inactive calls. Rule as the data show it: active = GI50 up to about 1.1 µM and inactive = higher.

What was measured:
Assay in all cases: NCI anticancer screen, dose series, 48 h
[1] = tested on: A549
[2] = tested on: K562
[3] = tested on: KM12
[4] = tested on: MDA-MB-231
[5] = tested on: HOP-62
[6] = tested on: OVCAR-4
[7] = tested on: U-251
[8] = tested on: SK-MEL-28
[9] = tested on: MDA-MB-435
[10] = tested on: M14
[11] = tested on: RPMI-8226
[12] = tested on: IGROV-1
[13] = tested on: MCF7
[14] = tested on: OVCAR-8
[15] = tested on: SW-620
[16] = tested on: UO-31
[17] = tested on: SK-OV-3
[18] = tested on: RXF 393
[19] = tested on: 786-0
[20] = tested on: LOX IMVI
[21] = tested on: Hs-578T
[22] = tested on: HT-29
[23] = tested on: NCI-H460
[24] = tested on: T47D
[25] = tested on: NCI-H23
[26] = tested on: EKVX
[27] = tested on: DU-145
[28] = tested on: HCC 2998
[29] = tested on: NCI/ADR-RES
[30] = tested on: MDA-N
[31] = tested on: SK-MEL-2
[32] = tested on: NCI-H226
[33] = tested on: HCT-116
[34] = tested on: HOP-92
[35] = tested on: SNB-75
[36] = tested on: UACC-257
[37] = tested on: BT-549
[38] = tested on: CCRF-CEM
[39] = tested on: TK-10
[40] = tested on: ACHN
[41] = tested on: SF-295
[42] = tested on: SR
[43] = tested on: NCI-H522
[44] = tested on: UACC-62
[45] = tested on: A498
[46] = tested on: Malme-3M
[47] = tested on: MOLT-4
[48] = tested on: CAKI-1
[49] = tested on: SF-268
[50] = tested on: OVCAR-3
[51] = tested on: OVCAR-5
[52] = tested on: HCT-15
[53] = tested on: SK-MEL-5
[54] = tested on: SN12C
[55] = tested on: SNB-19
[56] = tested on: HL-60
[57] = tested on: COLO 205
[58] = tested on: PC-3
[59] = tested on: SF-539

O=C1C(c2c(O)[nH]c3ccc(S(=O)(=O)O)cc23)=Nc2ccccc21
GI50 [1]: > 100 µM (inactive) | GI50 [2]: > 100 µM (inactive) | GI50 [3]: > 100 µM (inactive) | GI50 [4]: > 100 µM (inactive) | GI50 [5]: > 100 µM (inactive) | GI50 [6]: 94.4 µM (inactive) | GI50 [7]: > 100 µM (inactive) | GI50 [8]: > 100 µM (inactive) | GI50 [9]: > 100 µM (inactive) | GI50 [10]: > 100 µM (inactive) | GI50 [11]: > 100 µM (inactive) | GI50 [12]: > 100 µM (inactive) | GI50 [13]: 53.5 µM (inactive) | GI50 [14]: > 100 µM (inactive) | GI50 [15]: > 100 µM (inactive) | GI50 [16]: > 100 µM (inactive) | GI50 [17]: > 100 µM (inactive) | GI50 [18]: > 100 µM (inactive) | GI50 [19]: > 100 µM (inactive) | GI50 [20]: > 100 µM (inactive) | GI50 [21]: > 100 µM (inactive) | GI50 [22]: > 100 µM (inactive) | GI50 [23]: > 100 µM (inactive) | GI50 [24]: 72.1 µM (inactive) | GI50 [25]: > 100 µM (inactive) | GI50 [26]: > 100 µM (inactive) | GI50 [27]: > 100 µM (inactive) | GI50 [28]: > 100 µM (inactive) | GI50 [29]: > 100 µM (inactive) | GI50 [30]: > 100 µM (inactive) | GI50 [31]: > 100 µM (inactive) | GI50 [32]: > 100 µM (inactive) | GI50 [33]: > 100 µM (inactive) | GI50 [34]: > 100 µM (inactive) | GI50 [35]: > 100 µM (inactive) | GI50 [36]: > 100 µM (inactive) | GI50 [37]: > 100 µM (inactive) | GI50 [38]: > 100 µM (inactive) | GI50 [39]: > 100 µM (inactive) | GI50 [40]: > 100 µM (inactive) | GI50 [41]: > 100 µM (inactive) | GI50 [42]: > 100 µM (inactive) | GI50 [43]: > 100 µM (inactive) | GI50 [44]: > 100 µM (inactive) | GI50 [45]: > 100 µM (inactive) | GI50 [46]: > 100 µM (inactive) | GI50 [47]: > 100 µM (inactive) | GI50 [48]: > 100 µM (inactive) | GI50 [49]: > 100 µM (inactive) | GI50 [50]: > 100 µM (inactive) | GI50 [51]: > 100 µM (inactive) | GI50 [52]: > 100 µM | GI50 [53]: > 100 µM (inactive) | GI50 [54]: > 100 µM (inactive) | GI50 [55]: > 100 µM (inactive) | GI50 [56]: > 100 µM (inactive) | GI50 [57]: > 100 µM (inactive) | GI50 [58]: > 100 µM (inactive)

CC(C)OC(=O)c1ccc(NCc2cc(O)ccc2O)cc1Cl
GI50 [1]: 12 µM (inactive) | GI50 [2]: 0.501 µM (active) | GI50 [3]: 3.64 µM (inactive) | GI50 [4]: 4.18 µM (inactive) | GI50 [5]: 18.9 µM (inactive) | GI50 [6]: 4.89 µM (inactive) | GI50 [7]: 3.95 µM (inactive) | GI50 [8]: 4.28 µM (inactive) | GI50 [9]: 2.15 µM (inactive) | GI50 [10]: 7.13 µM (inactive) | GI50 [11]: 0.202 µM (active) | GI50 [12]: 2.31 µM (inactive) | GI50 [13]: 3.47 µM (inactive) | GI50 [14]: 2.77 µM (inactive) | GI50 [15]: 2.72 µM (inactive) | GI50 [16]: 0.993 µM (active) | GI50 [17]: 7.21 µM (inactive) | GI50 [18]: 2.61 µM (inactive) | GI50 [19]: 2.09 µM (inactive) | GI50 [20]: 3.27 µM (inactive) | GI50 [21]: 23.7 µM (inactive) | GI50 [22]: 9.57 µM (inactive) | GI50 [23]: 6.08 µM (inactive) | GI50 [24]: 1.56 µM (inactive) | GI50 [25]: 4.39 µM (inactive) | GI50 [26]: 4.92 µM (inactive) | GI50 [27]: 9.08 µM (inactive) | GI50 [28]: 3.59 µM (inactive) | GI50 [29]: 2.78 µM (inactive) | GI50 [30]: 3.18 µM (inactive) | GI50 [31]: 15.1 µM (inactive) | GI50 [32]: 8.22 µM (inactive) | GI50 [33]: 8.87 µM (inactive) | GI50 [34]: 1.51 µM (inactive) | GI50 [35]: 6.73 µM (inactive) | GI50 [36]: 11.4 µM (inactive) | GI50 [37]: 0.327 µM (active) | GI50 [38]: 0.258 µM (active) | GI50 [39]: 6.98 µM (inactive) | GI50 [40]: 1.78 µM (inactive) | GI50 [41]: 12.2 µM (inactive) | GI50 [42]: 0.695 µM (active) | GI50 [43]: 0.206 µM (active) | GI50 [44]: 5.26 µM (inactive) | GI50 [45]: 11 µM (inactive) | GI50 [47]: 0.695 µM (active) | GI50 [48]: 0.861 µM (active) | GI50 [59]: 1.75 µM (inactive) | GI50 [49]: 13.1 µM (inactive) | GI50 [50]: 2.56 µM (inactive) | GI50 [51]: 8.43 µM (inactive) | GI50 [52]: 0.798 µM | GI50 [53]: 2.73 µM (inactive) | GI50 [54]: 4 µM (inactive) | GI50 [55]: 2.64 µM (inactive) | GI50 [56]: 0.364 µM (active) | GI50 [57]: 2.3 µM (inactive) | GI50 [58]: 2.57 µM (inactive)
